Measured values as given in patent publication US20070185161A1, “Bicyclic substituted indole-derivative steroid hormone nuclear receptor modulators” (priority 2004, published 2007).

Target: T1, human MR (Homo sapiens, UniProt P08235)
T1 construct: The full length human MR gene is cloned from a human kidney or human brain cDNA library; made in house; host or cells: SF9 insect cells (baculovirus)
T1 sequence (P08235 1-984): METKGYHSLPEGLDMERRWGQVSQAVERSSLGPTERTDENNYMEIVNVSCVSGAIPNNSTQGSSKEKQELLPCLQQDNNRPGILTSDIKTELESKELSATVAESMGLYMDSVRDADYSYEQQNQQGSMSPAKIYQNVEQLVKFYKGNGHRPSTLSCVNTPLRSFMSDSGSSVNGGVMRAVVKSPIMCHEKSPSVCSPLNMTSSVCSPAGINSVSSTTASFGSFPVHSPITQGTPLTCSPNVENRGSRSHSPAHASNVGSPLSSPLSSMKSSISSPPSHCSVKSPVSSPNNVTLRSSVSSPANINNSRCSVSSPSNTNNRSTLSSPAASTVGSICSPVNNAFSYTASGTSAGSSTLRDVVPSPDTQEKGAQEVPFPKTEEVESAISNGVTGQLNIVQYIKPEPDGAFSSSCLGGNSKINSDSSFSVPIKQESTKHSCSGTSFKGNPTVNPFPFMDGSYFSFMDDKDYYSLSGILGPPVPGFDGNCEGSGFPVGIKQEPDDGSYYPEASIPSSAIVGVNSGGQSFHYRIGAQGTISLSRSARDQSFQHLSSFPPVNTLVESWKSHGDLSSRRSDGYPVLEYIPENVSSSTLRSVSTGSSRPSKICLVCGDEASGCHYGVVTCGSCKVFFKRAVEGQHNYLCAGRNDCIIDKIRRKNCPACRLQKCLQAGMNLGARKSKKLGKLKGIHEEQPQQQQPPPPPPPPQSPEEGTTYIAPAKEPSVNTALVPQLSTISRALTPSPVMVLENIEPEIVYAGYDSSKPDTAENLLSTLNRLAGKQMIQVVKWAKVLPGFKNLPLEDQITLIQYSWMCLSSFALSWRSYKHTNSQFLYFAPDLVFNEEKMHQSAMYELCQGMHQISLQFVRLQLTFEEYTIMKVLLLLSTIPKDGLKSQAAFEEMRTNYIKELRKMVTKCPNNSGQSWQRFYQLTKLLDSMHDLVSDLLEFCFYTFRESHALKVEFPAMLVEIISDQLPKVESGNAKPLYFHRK
Test: Mineralocorticoid Receptor Binding Assay (Method 1)
Conditions: [3H]-aldosterone, racemic mixture unless otherwise indicated
How it was run: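 Lysate of Sf9 cells expressing baculovirus full-length human MR (20-25 μg protein) incubated with 0.5 nM [3H]-aldosterone and test compound, pH 7.5 molybdate buffer, 16 h at 4 °C. Bound ligand collected by filtration and counted by scintillation. IC50 for displacement; Ki by Cheng-Prusoff.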

SMILES | Ki
CNCCCC1(c2c[nH]c3c(NS(C)(=O)=O)cccc23)CCc2cc(F)ccc21 (centres unmarked) [Example 42, N-{3-[5-Fluoro-1-(3-methylamino-propyl)-indan-1-yl]-1H-indol-7-yl}-methanesulfonamide] | ≤ 500 nM
CS(=O)(=O)Nc1cccc2c(C3(CCCN4CCOCC4)CCc4cc(F)ccc43)c[nH]c12 (centres unmarked) [Example 44, N-{3-[5-Fluoro-1-(3-morpholin-4-yl-propyl)-indan-1-yl]-1H-indol-7-yl}-methanesulfonamide] | ≤ 500 nM
